Measurements reported in patent US11453858B2, “Human plasma-like medium” (Whitehead Institute for Biomedical Research, priority 2016, dated 2022).
Values belong to the molecule of their own block, whether it stands above or below them.

What was measured:
K562 cells = assay: metabolite profiling of K562 cells (intracellular pyrimidine pathway metabolites); type: cell-based, human
Experimental: To determine which component(s) of HPLM^+dIFS affects the de novo pyrimidine synthesis pathway, K562 cells were cultured in HPLM^+dIFS derivatives lacking: (1) acetone, creatine, creatinine, formate, fructose, galactose, glutathione, glycerol, and hypoxanthine; (2) non-proteinogenic amino acids (8 metabolites); (3) water-soluble acids (8 metabolites); (4) urea; or (5) uric acid (FIG. 5A). […] HPLM^+dIFS contains uric acid at […], a concentration that is 40- and at least 500-fold greater than that of RPMI^+IFS and RPMI^+dIFS, respectively (FIG. 5C), and, importantly, its intracellular concentration reflects that of the corresponding culture medium (FIG. 5D).
To determine whether uric acid might cause inhibition of UMPS, an established UMPS inhibitor was studied to see if it had similar effects on the de novo pyrimidine biosynthesis pathway as uric acid in disclosed cells. […] Using LC/MS-based metabolite profiling, a species whose mass-to-charge ratio (m/z) matched the predicted m/z of allopurinol ribonucleotide was detected, and the magnitude correlated with the concentration of allopurinol in the media (FIG. 11D). Importantly, this species could be distinguished from its isomer, IMP, by their differing chromatographic retention times. […] However, a metabolite peak consistent with a putative uric acid ribonucleotide was not detected.
(§1) After 24 hr incubation, cells were centrifuged at 250 g for 5 min, resuspended in 1 mL ice-cold 0.9% sterile NaCl, and again centrifuged at 250 g for 5 min at 4° C. Metabolites were extracted in a 1 mL solution of 80% methanol containing 10 ng/mL phenylalanine-d8 as an internal standard. Following a 10 min vortex and centrifugation for […] 10 min at 4° C., samples were dried under nitrogen gas. Dried samples were stored at −80° C. and then resuspended in 100 μL water; 4 μL of each cell sample was injected for LC/MS analysis as described for profiling media samples. For all experiments, an additional culture replicate was set up identically and used for measuring cell number and volume, which were each measured using a Beckman Z2 Coulter Counter with a diameter setting of 8-30 μm.

recombinant UMPS = target: T1, recombinant UMPS (Homo sapiens, UniProt P11172); assay: in vitro UMPS activity assay (LC/MS detection of OMP and UMP); type: biochemical; settings: for UMP production by UMPS / abundance of OMP: increasing concentrations of inhibitor
T1 construct: The UMPS gene was amplified from the pDONR223-UMPS template using the primers JC624/JC625; made in house; host or cells: HEK-293T cells, transient transfection, anti-FLAG immunopurification
T1 sequence (P11172 2-480 limits assumed): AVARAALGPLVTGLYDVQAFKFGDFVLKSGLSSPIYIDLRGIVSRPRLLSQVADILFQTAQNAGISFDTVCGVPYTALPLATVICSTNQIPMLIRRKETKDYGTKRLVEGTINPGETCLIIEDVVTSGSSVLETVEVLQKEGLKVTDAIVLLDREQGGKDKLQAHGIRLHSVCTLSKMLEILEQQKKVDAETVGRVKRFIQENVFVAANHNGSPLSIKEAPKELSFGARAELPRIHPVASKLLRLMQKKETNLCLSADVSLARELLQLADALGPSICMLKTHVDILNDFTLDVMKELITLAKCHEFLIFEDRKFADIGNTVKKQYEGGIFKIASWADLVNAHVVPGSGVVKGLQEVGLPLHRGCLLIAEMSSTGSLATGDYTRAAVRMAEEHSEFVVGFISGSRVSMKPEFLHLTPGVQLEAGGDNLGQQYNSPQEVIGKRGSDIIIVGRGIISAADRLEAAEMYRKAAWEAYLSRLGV
Experimental: An UMPS mutant (Y37A, R155A), which was designed based on a recently deposited structure of the OPRT domain of human UMPS (Protein Data Bank entry 2WNS, chains A and B) (FIG. 12), had no activity and served as a negative control in the assay.
For metabolite profiling of LIMPS activity assay samples, reaction mixtures were extracted as described (see LIMPS activity assay) and 5 μL of each sample was injected for LC/MS analysis as described for profiling media samples, except that the mass spectrometer was operated in full scan, negative ionization mode only.
For orotate, PRPP, OMP, and UMP in UMPS assay samples, all settings as described for the tSIM scan used for FdUMP and FUMP were identical except that the maximum integration time was 200 msec, and the target masses were 155.0088 (corresponding to orotate), 323.0286 (corresponding to UMP), 367.0184 (corresponding to OMP), and 388.9445 (corresponding to PRPP).
For transfection of HEK-293 T cells, 4 million cells were plated in 15 cm culture dishes. After 24 hr, cells were transfected with 15 μg of pLJC2-UMPS-3×FLAG or pLJC2-UMPS (Y37A, R155A)-3×FLAG using the polyethylenimine method (Boussif et al., 1995). After 48 hr, cells were rinsed one time with ice-cold PBS and then immediately lysed with lysis buffer (1% Triton X-100, 40 mM Tris-HCl pH 7.5, 100 mM NaCl, 5 mM MgCl2, 1 tablet of EDTA-free protease inhibitor (Roche 11580800; per 25 mL buffer), 1 tablet of PhosStop phosphatase inhibitor (Roche 04906845001; per 10 mL buffer)). The cell lysates were cleared by centrifugation at 21130 g for 10 min at 4° C. For anti-FLAG immunoprecipitation, the FLAG-M2 affinity gel (Sigma A2220) was washed 3 times in lysis buffer. For each experiment, 500 μL of a 50/50 slurry of the affinity gel was then added to a pool of clarified lysates collected from 5 individual 15 cm culture dishes, and incubated with rotation for 3 hr at 4° C. Following immunoprecipitation, the beads were washed 2 times in lysis buffer and 3 times with lysis buffer containing 500 mM NaCl. Recombinant protein was then eluted in lysis buffer containing 1 mg/mL FLAG peptide for 1 hr at 4° C. The eluent was isolated by centrifugation at 100 g for 4 min at 4° C. (BioRad micro bio-spin column 732-6204), buffer exchanged (Amicon Ultra 30K NMWL) against 20 volumes of storage buffer (40 mM Tris-HCl pH 7.5, 100 mM NaCl, 1.5 mM dTT), mixed with glycerol (final concentration 15% v/v), and finally snap-frozen with liquid nitrogen and stored at −80° C. Protein samples were quantified using Bradford reagent and a BSA standard, and verified by 12% SDS-PAGE.
Reactions of each purified LIMPS variant (20-40 nM enzyme) with orotate (100 μM) and PRPP (300 μM) were carried out at 37° C. in 20 mM Tris-HCl pH 7.5, 5 mM Na2HPO4, […], 2 mM 2 mM dTT, 100 μM EDTA (adapted from (Han et al., 1995)), and various concentrations of putative inhibitors in a total volume of 100 μL. Following 20 min incubation, a 15 μL aliquot of the reaction mixture was removed and immediately added to 85 μL ice-cold 80% methanol for metabolite extraction, vortexed for 5 min, and centrifuged at 21130 g for 1 min at 4° C.
Stock solutions of 6-azauridine, 6-aza-UMP, 9-methyluric acid, allantoin, allopurinol, and uric acid were made up fresh at 200 mM in 1 M NaOH, and upon appropriate dilutions, had little effect on reaction pH.
An OMP chemical standard was not available.

[1] = system: certain cancer cell lines; settings: Schwartz and Handschumacher, 1979; cited from earlier work
[2] = system: six hematological cancer cell lines; assay: metabolite profiling of six hematological cancer cell lines; type: cell-based, human; settings: 350 μM uric acid added to RPMI+IFS, compared to RPMI+IFS
Experimental: To test the hypothesis that culturing cells in a medium that better mimics the metabolic composition of human plasma alters cellular metabolism compared to that in established media, the metabolite profiles of cells cultured in HPLM^+dIFS were compared to those in RPMI^+IFS or RPMI^+dIFS.
as §1

NOMO1 cells [3] = assay: drug treatment assay, cell viability by Cell Titer-Glo; type: cell-based, human
Experimental: After 24 hr incubation, cells were treated with 5-FU (100 nM, 1 μM, 10 μM, 100 μM, or 1 mM) or doxorubicin (1.95 nM, 7.81 nM, 31.25 nM, 125 nM, or 500 nM). All wells, including untreated controls, contained 0.5% DMSO. Following addition of drugs, plates were gently shaken for 2 min. After 4 days of treatment, 200 μL from each well was transferred to a white 96-well plate (Greiner) and cell viability was assessed with Cell Titer-Glo (Promega). Luminescence was measured with a SpectraMax M5 Plate Reader (Molecular Devices) and normalized to an untreated control.
(§2) Dose-response values were plotted in GraphPad Prism and fit using a One Site-Fit log IC50 equation.

SW620 cells = assay: drug treatment assay, cell viability by Cell-Titer Glo; type: cell-based, human; settings: removal of uric acid from HPLM+dIFS
Experimental: SW620 cells were seeded at a density of 2000 cells/well and allowed to attach for 24 hr. 5-FU and doxorubicin were prepared in DMSO and dispensed using an HP D300 compound dispenser. Cell viability was assessed with Cell-Titer Glo at 4 days following treatment and luminescence was measured as described above.
as §2

ODC domain of UMPS = target: T2, ODC domain of UMPS (Homo sapiens, UniProt P11172); settings: literature; cited from earlier work
T2 sequence (P11172 1-480): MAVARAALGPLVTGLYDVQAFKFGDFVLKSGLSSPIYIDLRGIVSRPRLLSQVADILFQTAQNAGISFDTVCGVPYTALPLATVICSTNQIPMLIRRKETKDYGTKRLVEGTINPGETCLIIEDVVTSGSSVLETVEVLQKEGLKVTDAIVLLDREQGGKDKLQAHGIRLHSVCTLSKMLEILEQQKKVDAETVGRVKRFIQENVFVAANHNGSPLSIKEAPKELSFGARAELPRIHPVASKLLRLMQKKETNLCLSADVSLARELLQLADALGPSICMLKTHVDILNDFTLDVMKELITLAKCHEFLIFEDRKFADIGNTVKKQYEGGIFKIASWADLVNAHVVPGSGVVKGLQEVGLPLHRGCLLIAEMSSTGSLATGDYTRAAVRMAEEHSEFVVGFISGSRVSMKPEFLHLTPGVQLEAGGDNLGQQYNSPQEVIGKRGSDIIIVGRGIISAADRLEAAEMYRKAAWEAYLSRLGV

NOMO1 cells [4] = assay: 5-FU treatment for LC/MS (intracellular 5-FU, FdUMP, FUMP); settings: 20 μM 5-FU, 24 hr

direct inhibition of UMPS (recombinant UMPS): did not directly inhibit UMPS
Compound: Cn1c(=O)[nH]c2c(=O)[nH]c(=O)[nH]c21 [9-methyluric acid]
levels of orotate, orotidine, or the other intermediates in the de novo pyrimidine biosynthesis pathway (K562 cells; 350 μM in HPLM+dIFS, compared to HPLM+dIFS lacking uric acid): did not alter the levels

direct inhibition of UMPS (recombinant UMPS): did not directly inhibit UMPS
Compound: Oc1ncnc2[nH]ncc12 [allopurinol]
levels of carbamoylaspartate, dihydroorotate, orotate, orotidine, and OMP (K562 cells; HPLM+dIFS lacking uric acid, increasing concentrations of allopurinol): dose-dependently increased the levels
decrease in abundance of UTP (K562 cells; highest tested concentration of allopurinol): ~30%
sensitivity of cancer cell lines to 5-FU [1]: reduces the sensitivity of certain cancer cell lines to 5-FU

direct inhibition of UMPS (recombinant UMPS): did not directly inhibit UMPS
Compound: NC(=O)NC1NC(=O)NC1=O (stereo not drawn) [allantoin]

abundance of OMP (recombinant UMPS): increased OMP
UMP levels relative to reactions containing vehicle (recombinant UMPS; uric acid at 1 mM): ~30%
Compound: O=c1[nH]c(=O)c2[nH]c(=O)[nH]c2[nH]1 [uric acid]
orotate and orotidine abundances (K562 cells; HPLM+dIFS containing increasing concentrations of uric acid): dose-dependently increased orotate and orotidine abundances
orotate and orotidine levels on removal of the component from HPLM+dIFS (K562 cells; dropout formulations of HPLM+dIFS): reduced orotate and orotidine levels to those of cells cultured in RPMI
accumulation of OMP (K562 cells; highest tested concentration (700 μM)): led to a detectable accumulation of OMP
UTP abundance [2]: cell line-dependent effects on UTP abundance
orotate and orotidine levels [2]: greatly boosted orotate and orotidine levels
direct inhibition of UMPS (recombinant UMPS): direct inhibitor of the ODC domain of UMPS
UMP production by UMPS (recombinant UMPS): dose-dependently inhibited UMP production by UMPS

Compound: COc1cccc2c1C(=O)c1c(O)c3c(c(O)c1C2=O)C[C@@](O)(C(=O)CO)C[C@@H]3O[C@H]1C[C@H](N)[C@H](O)[C@H](C)O1 [doxorubicin]
potency of doxorubicin (NOMO1 cells [3]; culture in HPLM+dIFS compared to RPMI+IFS and RPMI+dIFS): without affecting the potency of doxorubicin
doxorubicin sensitivity (NOMO1 cells [3]; removal of uric acid from HPLM+dIFS): without affecting doxorubicin sensitivity
doxorubicin sensitivity (SW620 cells): did not influence doxorubicin sensitivity

Compound: O=c1[nH]cnc2c1cnn2C1O[C@H](COP(=O)(O)O)[C@@H](O)[C@H]1O (stereo partly drawn) [allopurinol ribonucleotide]
inhibition of the ODC domain of UMPS (ODC domain of UMPS): competitively inhibit the ODC domain of UMPS

direct inhibition of UMPS (recombinant UMPS): did not directly inhibit UMPS
Compound: O=c1cnn([C@@H]2O[C@H](CO)[C@@H](O)[C@H]2O)c(=O)[nH]1 [6-azauridine]

intracellular abundances of FdUMP and 5-FU (NOMO1 cells [4]; uric acid-containing HPLM+dIFS vs lacking uric acid): little effect
Compound: O=c1[nH]cc(F)c(=O)[nH]1 [5-FU, 5-Fluorouracil]
FUMP levels (NOMO1 cells [4]; uric acid-containing HPLM+dIFS): below the limit of detection

UMP levels relative to reactions containing vehicle (recombinant UMPS; 6-aza-UMP at 50 μM): ~3%
Compound: O=c1cnn([C@@H]2O[C@H](COP(=O)(O)O)[C@@H](O)[C@H]2O)c(=O)[nH]1 [6-aza-UMP]
inhibition of the ODC domain of UMPS (ODC domain of UMPS): competitively inhibit the ODC domain of UMPS
UMP production by UMPS (recombinant UMPS): dose-dependently decreased UMP production by UMPS
abundance of OMP (recombinant UMPS): dramatically increased the abundance of OMP
